Results published in patent publication US11000033B2, “Ketone or oxime compound, and herbicide” (NISSAN CHEMICAL CORPORATION, priority 2014, dated 2021).

Experiments:
Type in all cases: in vivo
rapeseed [1] = assay: Test Example 4: effect on crop by soil treatment (symbol g); conditions: for g: rapeseed, effect grade on crop: 320 g/ha
Method in brief: (§1)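 Plants are raised in a greenhouse (25° C. to 30° C.) from spot-sown seed, which sits under about 1.5 cm of sterilized diluvial soil in a box shared with weed species.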

corn = assay: Test Example 5: effect on crop by foliage application, plastic box (symbol c); conditions: 320 g/ha, 3 weeks after application
Method in brief: (§2)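 Box culture: sterile diluvial soil, seeds spot-sown, ~1.5 cm cover, raised under glass at 25–30° C.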

[2] = system: directly sowed rice plant; assay: Test Example 3: effect on crop by foliage application, Wagner pot (symbol b); conditions: application herbicide amount 320 g/ha
Method in brief: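 Wagner pot (1/10000 are), alluvial soil, submerged 0.1–0.5 cm; sown E. crus-galli var. crus-galli, L. chinensis, C. difformis, rice; greenhouse 25–30 °C.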

Avena fatua [3] = assay: Test Example 5: herbicidal effect by foliage application, plastic box (symbol I); conditions: 320 g/ha, 3 weeks after application
Method in brief: (§3)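 Post-emergence spray; diluvial soil (sterilized), ~1.5 cm seed cover; greenhouse 25–30° C; 14-day-old plants; water-diluted emulsion at predetermined dose; visual score at 3 wk post-treatment.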

Scirpus juncoides = assay: Test Example 1: herbicidal activity, application before weed generation in submerged conditions (symbol B); conditions: application herbicide amount 320 g/ha
Method in brief: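 Greenhouse growth at 25–30 °C lasted 3 weeks after treatment, when each weed was graded 0–5 by herbicidal ratio. Treatment was a diluted emulsion applied to the water surface of 4 cm-submerged alluvial soil on the sowing day.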

Avena fatua [4] = assay: Test Example 4: herbicidal effect by soil treatment (symbol I); conditions: for I: Avena fatua, herbicidal effect grade: 320 g/ha
Method in brief: (§4)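 Seeds were sown in sterilized diluvial soil, covered with about 1.5 cm of soil, and the soil surface was sprayed with a water-diluted emulsion of the compound at a predetermined rate. Plants grew in a greenhouse at 25° C. to 30° C.; effects were scored visually 3 weeks after application.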

Lolium multiflorum Lam. = assay: Test Example 4: herbicidal effect by soil treatment (symbol K); conditions: for K: Lolium multiflorum Lam., herbicidal effect grade: 320 g/ha
Method in brief: as §4

Stellaria media = assay: Test Example 5: herbicidal effect by foliage application, plastic box (symbol P); conditions: 320 g/ha, 3 weeks after application
Method in brief: as §3

Chenopodium album [5] = assay: Test Example 5: herbicidal effect by foliage application, plastic box (symbol O); conditions: 320 g/ha, 3 weeks after application
Method in brief: as §3

Digitaria ciliaris [6] = assay: Test Example 4: herbicidal effect by soil treatment (symbol F); conditions: for F: Digitaria ciliaris, herbicidal effect grade: 320 g/ha
Method in brief: as §4

rice = assay: Test Example 4: effect on crop by soil treatment (symbol b); conditions: for b: directly sowed rice plant, effect grade on crop: 320 g/ha
Method in brief: as §1

rapeseed [7] = assay: Test Example 5: effect on crop by foliage application, plastic box (symbol g); conditions: 320 g/ha, 3 weeks after application
Method in brief: as §2

Digitaria ciliaris [8] = assay: Test Example 5: herbicidal effect by foliage application, plastic box (symbol F); conditions: 320 g/ha, 3 weeks after application
Method in brief: as §3

Chenopodium album [9] = assay: Test Example 4: herbicidal effect by soil treatment (symbol O); conditions: for O: Chenopodium album, herbicidal effect grade: 320 g/ha
Method in brief: as §4

Veronica persica = assay: Test Example 5: herbicidal effect by foliage application, plastic box (symbol R); conditions: 320 g/ha, 3 weeks after application
Method in brief: as §3

wheat = assay: Test Example 5: effect on crop by foliage application, plastic box (symbol e); conditions: 320 g/ha, 3 weeks after application
Method in brief: as §2

[10] = system: Echinochloa crus-galli var. crus-galli; assay: Test Example 4: herbicidal effect by soil treatment (symbol H); conditions: for H: Echinochloa crus-galli var. crus-galli, herbicidal effect grade: 320 g/ha
Method in brief: as §4

[11] = application herbicide amount 320 g/ha

Row | SMILES | g: rapeseed, effect grade on crop (rapeseed [1]) | c: corn, effect on crop (criteria 0-5) (corn) | effect on crop b (directly sowed rice plant), grade 0-5 [2] | I: Avena fatua, herbicidal effect (criteria 0-5) (Avena fatua [3]) | Herbicidal effect grade, B: Scirpus juncoides (Scirpus juncoides) | I: Avena fatua, herbicidal effect grade (Avena fatua [4]) | K: Lolium multiflorum Lam., herbicidal effect grade (Lolium multiflorum Lam.) | P: Stellaria media, herbicidal effect (criteria 0-5) (Stellaria media) | O: Chenopodium album, herbicidal effect (criteria 0-5) (Chenopodium album [5]) | F: Digitaria ciliaris, herbicidal effect grade (Digitaria ciliaris [6]) | b: directly sowed rice plant, effect grade on crop (rice) | g: rapeseed, effect on crop (criteria 0-5) (rapeseed [7]) | F: Digitaria ciliaris, herbicidal effect (criteria 0-5) (Digitaria ciliaris [8]) | O: Chenopodium album, herbicidal effect grade (Chenopodium album [9]) | R: Veronica persica, herbicidal effect (criteria 0-5) (Veronica persica) | e: wheat, effect on crop (criteria 0-5) (wheat) | H: Echinochloa crus-galli var. crus-galli, herbicidal effect grade [10] | other results
1 | CC(CC1CC(OC(=O)COc2ccccc2)=C(c2c(C)cc(-n3cc(Cl)cn3)cc2C)C1=O)=NOCC(F)(F)F (centres unmarked) [9-012] |  |  |  |  |  |  |  |  |  |  |  |  |  |  |  |  |  | Effect on crop grade, g: rapeseed (rapeseed [1]; [11]): 0 (Herbicidal ratio of 5% or lower (almost no effect)); c: corn, effect on crop grade (corn): 5 (Herbicidal ratio of 90% or more (almost completely withered)); b (directly sowed rice plant) effect on crop grade ([2]; Table 24): 5 (Herbicidal ratio of 90% or more (almost completely withered)); I: Avena fatua, herbicidal effect grade (Avena fatua [3]): 5 (Herbicidal ratio of 90% or more (almost completely withered)); B (Scirpus juncoides) herbicidal effect grade (Scirpus juncoides): 4 (Herbicidal ratio of 70% or higher and lower than 90%); Herbicidal effect grade, I: Avena fatua (Avena fatua [4]; [11]): 0 (Herbicidal ratio of 5% or lower (almost no effect)); Herbicidal effect grade, K: Lolium multiflorum Lam. (Lolium multiflorum Lam.; [11]): 5 (Herbicidal ratio of 90% or more (almost completely withered)); P: Stellaria media, herbicidal effect grade (Stellaria media): 4 (Herbicidal ratio of 70% or higher and lower than 90%); O: Chenopodium album, herbicidal effect grade (Chenopodium album [5]): 2 (Herbicidal ratio of 20% or higher and lower than 40%); Herbicidal effect grade, F: Digitaria ciliaris (Digitaria ciliaris [6]; [11]): 5 (Herbicidal ratio of 90% or more (almost completely withered)); Effect on crop grade, b: directly sowed rice plant (rice; [11]): 5 (Herbicidal ratio of 90% or more (almost completely withered)); g: rapeseed, effect on crop grade (rapeseed [7]): 3 (Herbicidal ratio of 40% or higher and lower than 70%); F: Digitaria ciliaris, herbicidal effect grade (Digitaria ciliaris [8]): 5 (Herbicidal ratio of 90% or more (almost completely withered)); Herbicidal effect grade, O: Chenopodium album (Chenopodium album [9]; [11]): 0 (Herbicidal ratio of 5% or lower (almost no effect)); R: Veronica persica, herbicidal effect grade (Veronica persica): 3 (Herbicidal ratio of 40% or higher and lower than 70%); e: wheat, effect on crop grade (wheat): 2 (Herbicidal ratio of 20% or higher and lower than 40%); Herbicidal effect grade, H: Echinochloa crus-galli var. crus-galli [10, 11]: 5 (Herbicidal ratio of 90% or more (almost completely withered))
2 | CON=C(C)CC1CC(OC(=O)C#C[Si](C)(C)C)=C(c2c(C)cc(C)cc2C)C1=O (centres unmarked) [1-096] | 3 (Herbicidal ratio of 40% or higher and lower than 70%) | 5 (Herbicidal ratio of 90% or more (almost completely withered)) | 5 (Herbicidal ratio of 90% or more (almost completely withered)) | 5 (Herbicidal ratio of 90% or more (almost completely withered)) | 5 (Herbicidal ratio of 90% or more (almost completely withered)) | 3 (Herbicidal ratio of 40% or higher and lower than 70%) | 5 (Herbicidal ratio of 90% or more (almost completely withered)) | 2 (Herbicidal ratio of 20% or higher and lower than 40%) | 2 (Herbicidal ratio of 20% or higher and lower than 40%) | 5 (Herbicidal ratio of 90% or more (almost completely withered)) | 5 (Herbicidal ratio of 90% or more (almost completely withered)) | 4 (Herbicidal ratio of 70% or higher and lower than 90%) | 5 (Herbicidal ratio of 90% or more (almost completely withered)) | 0 (Herbicidal ratio of 5% or lower (almost no effect)) | 3 (Herbicidal ratio of 40% or higher and lower than 70%) | 5 (Herbicidal ratio of 90% or more (almost completely withered)) | 4 (Herbicidal ratio of 70% or higher and lower than 90%) | 
3 | CC(CC1CC(O)=C(c2c(C)cc(C)cc2C)C1=O)=NOCc1ccc(Cl)cc1 (centres unmarked) [1-137] | 0 (Herbicidal ratio of 5% or lower (almost no effect)) | 3 (Herbicidal ratio of 40% or higher and lower than 70%) | 5 (Herbicidal ratio of 90% or more (almost completely withered)) | 5 (Herbicidal ratio of 90% or more (almost completely withered)) | 5 (Herbicidal ratio of 90% or more (almost completely withered)) | 2 (Herbicidal ratio of 20% or higher and lower than 40%) | 5 (Herbicidal ratio of 90% or more (almost completely withered)) | 0 (Herbicidal ratio of 5% or lower (almost no effect)) | 3 (Herbicidal ratio of 40% or higher and lower than 70%) | 5 (Herbicidal ratio of 90% or more (almost completely withered)) | 5 (Herbicidal ratio of 90% or more (almost completely withered)) | 4 (Herbicidal ratio of 70% or higher and lower than 90%) | 5 (Herbicidal ratio of 90% or more (almost completely withered)) | 0 (Herbicidal ratio of 5% or lower (almost no effect)) | 2 (Herbicidal ratio of 20% or higher and lower than 40%) | 3 (Herbicidal ratio of 40% or higher and lower than 70%) | 5 (Herbicidal ratio of 90% or more (almost completely withered)) | 
4 | COC(=O)c1ccc(CON=C(C)CC2CC(O)=C(c3c(C)cc(C)cc3C)C2=O)cc1 (centres unmarked) [1-118] | 1 (Herbicidal ratio of 5% or higher and lower than 20%) | 4 (Herbicidal ratio of 70% or higher and lower than 90%) | 5 (Herbicidal ratio of 90% or more (almost completely withered)) | 3 (Herbicidal ratio of 40% or higher and lower than 70%) | 1 (Herbicidal ratio of 5% or higher and lower than 20%) | 0 (Herbicidal ratio of 5% or lower (almost no effect)) | 3 (Herbicidal ratio of 40% or higher and lower than 70%) | 3 (Herbicidal ratio of 40% or higher and lower than 70%) | 3 (Herbicidal ratio of 40% or higher and lower than 70%) | 3 (Herbicidal ratio of 40% or higher and lower than 70%) | 5 (Herbicidal ratio of 90% or more (almost completely withered)) | 4 (Herbicidal ratio of 70% or higher and lower than 90%) | 0 (Herbicidal ratio of 5% or lower (almost no effect)) | 0 (Herbicidal ratio of 5% or lower (almost no effect)) | 3 (Herbicidal ratio of 40% or higher and lower than 70%) | 0 (Herbicidal ratio of 5% or lower (almost no effect)) | 4 (Herbicidal ratio of 70% or higher and lower than 90%) | 
